Experiments:
[1] = system: Purinergic P2X; assay: Radioligand binding assay No. 268700; conditions: test substance 10 μM; rabbit
[2] = molecular target: Dopamine D2S (Homo sapiens (Human), UniProt P14416); assay: Radioligand binding assay No. 219700; conditions: test substance 10 μM, read-out: Inhibitory rate (%), Dopamine D2S
[3] = system: Calcium Channel L-Type, Dihydropyridine; assay: Radioligand binding assay No. 214600; conditions: test substance 10 μM; rat
[4] = molecular target: Serotonin (5-Hydroxytryptamine) 5-HT3 (Homo sapiens (Human), UniProt P46098); assay: Radioligand binding assay No. 271910; conditions: test substance 10 μM, read-out: Inhibitory rate (%), Serotonin (5-Hydroxytryptamine) 5-HT3
[5] = In vivo pharmacokinetics assay in rat; conditions: male, SD, plasma, rats; for Vd: read-out: Vss; for bioavailability: P.O 4 mg/kg vs I.V 2 mg/kg, read-out: F % (absolute bioavailability)
Source text: Test animals: male SD rats, weighing 190-260 g. Intravenous bolus injection (I.V.) and gavage (P.O.) administrations were each applied to three rats.
Compound 5, for both I.V and P.O administrations, was solubilized with a solution of 30% DMF+50% PEG400+20%(0.9% sodium chloride injection)(the pH being adjusted with a suitable amount of an aqueous hydrochloric acid solution (2 mol/L)).
Compound 6, for both I.V and P.O administrations, was solubilized with a solution of 30% DMF+30% PEG400+5%0.1 mol/lhydrochloric acid+[…] normal saline.
Compound 30 for I.V administration was solubilized with a solution of 30% DMF+50% PEG400+20% normal saline; Compound 30 for P.O administration was solubilized with a solution of 5% DMSO+30% polyoxyethylene castor oil+65% normal saline.
Compound 30 hydrochloride for I.V administration was solubilized with a solution of 30% DMF+50% PEG400+20% sterile water for injection.
I.V blood sampling time point: 0.083 h, 0.25 h, 0.5 h, 1 h, 2 h, 4 h, 6 h, 8 h and 24 h after the administration, P.O blood sampling time point: 0.17 h, 0.5 h, 1 h, 2 h, 4 h, 6 h, 8 h and 24 h after the administration.
About 100 μl of whole blood was taken at each time point, anticoagulated with heparin sodium, and centrifugated at 8,000 rpm in a high-speed centrifuge for 6 minutes to separate plasma, and the resulting plasma was frozen at −80° C. in a refrigerator.
The plasma sample was treated with a liquid-liquid extraction. 20 μL of plasma was taken. A solution of BEZ-235 (Novartis, Phase II) in tertbutylmethylether (600 μL, 10 ng/mL) was added as internal standard. The mixture was rotated vertically at 1500 rpm for 10 mins and then centrifugated at 12000 rpm for 5 mins. 400 μL of the supernate was taken and dried under nitrogen. The dried substance was redissolved in 200 μL methanol:water (7:3, V/V) for LC-MS/MS analysis.
Calculation Absolute bioavailability F%=[AUC]last (P.O)*Dose(I.V)/[AUC]last (I.V)*Dose(P.O)

[6] = molecular target: Neuropeptide Y Y1 (Homo sapiens (Human), UniProt P25929); assay: Radioligand binding assay No. 257010; conditions: test substance 10 μM, read-out: Inhibitory rate (%), Neuropeptide Y Y1
[7] = molecular target: Dopamine D4.2 (Homo sapiens (Human), UniProt P21917, DEL265-296); assay: Radioligand binding assay No. 219900; conditions: test substance 10 μM, read-out: Inhibitory rate (%), Dopamine D4.2
[8] = molecular target: Serotonin (5-Hydroxytryptamine) 5-HT1A (Homo sapiens (Human), UniProt P08908); assay: Radioligand binding assay No. 271110; conditions: test substance 10 μM, read-out: Inhibitory rate (%), Serotonin (5-Hydroxytryptamine) 5-HT1A
[9] = molecular target: Bradykinin B2 (Homo sapiens (Human), UniProt P30411); assay: Radioligand binding assay No. 212620; conditions: test substance 10 μM, read-out: Inhibitory rate (%), Bradykinin B2
Sequence of Bradykinin B2 (P30411 whole entry): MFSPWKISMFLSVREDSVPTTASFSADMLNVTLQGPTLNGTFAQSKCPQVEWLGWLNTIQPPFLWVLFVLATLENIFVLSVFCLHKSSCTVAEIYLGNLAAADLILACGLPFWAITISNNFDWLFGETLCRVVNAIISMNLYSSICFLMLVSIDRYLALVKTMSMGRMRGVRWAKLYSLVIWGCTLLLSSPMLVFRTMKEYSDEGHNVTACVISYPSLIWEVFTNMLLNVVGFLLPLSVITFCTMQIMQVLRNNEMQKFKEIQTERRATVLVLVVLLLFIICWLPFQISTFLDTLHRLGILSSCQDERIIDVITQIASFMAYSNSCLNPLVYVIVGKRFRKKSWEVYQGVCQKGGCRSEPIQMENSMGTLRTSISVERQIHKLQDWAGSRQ

Sequence of Dopamine D2S (P14416 other isoform, or with tags, fused parts or gaps): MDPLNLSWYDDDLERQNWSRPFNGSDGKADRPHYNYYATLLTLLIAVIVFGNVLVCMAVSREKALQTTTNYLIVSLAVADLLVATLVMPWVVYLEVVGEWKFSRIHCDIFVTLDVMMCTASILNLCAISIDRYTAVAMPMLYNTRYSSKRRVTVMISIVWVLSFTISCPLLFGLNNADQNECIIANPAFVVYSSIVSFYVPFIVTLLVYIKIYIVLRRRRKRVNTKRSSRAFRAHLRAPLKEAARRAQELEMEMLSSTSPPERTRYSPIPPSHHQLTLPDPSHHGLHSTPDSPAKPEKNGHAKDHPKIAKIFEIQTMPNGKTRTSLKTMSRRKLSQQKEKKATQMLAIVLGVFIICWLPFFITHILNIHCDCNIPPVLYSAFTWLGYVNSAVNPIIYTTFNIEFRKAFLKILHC
Sequence of Neuropeptide Y Y1 (P25929 whole entry): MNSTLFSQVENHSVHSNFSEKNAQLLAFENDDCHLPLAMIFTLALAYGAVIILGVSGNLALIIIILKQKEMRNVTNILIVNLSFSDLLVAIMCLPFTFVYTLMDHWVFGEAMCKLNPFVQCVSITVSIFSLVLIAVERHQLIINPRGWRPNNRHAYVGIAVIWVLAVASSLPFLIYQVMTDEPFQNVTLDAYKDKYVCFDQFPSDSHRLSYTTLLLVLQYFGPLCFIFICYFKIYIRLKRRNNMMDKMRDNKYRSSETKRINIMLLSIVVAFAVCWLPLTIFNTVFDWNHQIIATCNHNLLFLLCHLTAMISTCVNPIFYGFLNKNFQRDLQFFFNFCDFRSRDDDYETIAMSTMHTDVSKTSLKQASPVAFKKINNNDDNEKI
Sequence of Serotonin (5-Hydroxytryptamine) 5-HT3 (P46098 24-478): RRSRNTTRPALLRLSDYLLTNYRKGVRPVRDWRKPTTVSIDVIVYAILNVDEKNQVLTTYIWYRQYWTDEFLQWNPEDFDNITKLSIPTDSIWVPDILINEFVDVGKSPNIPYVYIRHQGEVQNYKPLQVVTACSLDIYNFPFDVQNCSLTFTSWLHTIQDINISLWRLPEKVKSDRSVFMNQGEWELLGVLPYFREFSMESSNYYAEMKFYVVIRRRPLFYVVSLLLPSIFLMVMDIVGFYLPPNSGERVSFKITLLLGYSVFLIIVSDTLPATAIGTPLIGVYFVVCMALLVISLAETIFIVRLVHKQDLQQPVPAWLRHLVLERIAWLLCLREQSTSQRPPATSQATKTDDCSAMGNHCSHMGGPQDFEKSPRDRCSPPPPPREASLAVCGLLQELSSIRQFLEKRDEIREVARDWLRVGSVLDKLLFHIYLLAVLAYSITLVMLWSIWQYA
Sequence of Serotonin (5-Hydroxytryptamine) 5-HT1A (P08908 whole entry): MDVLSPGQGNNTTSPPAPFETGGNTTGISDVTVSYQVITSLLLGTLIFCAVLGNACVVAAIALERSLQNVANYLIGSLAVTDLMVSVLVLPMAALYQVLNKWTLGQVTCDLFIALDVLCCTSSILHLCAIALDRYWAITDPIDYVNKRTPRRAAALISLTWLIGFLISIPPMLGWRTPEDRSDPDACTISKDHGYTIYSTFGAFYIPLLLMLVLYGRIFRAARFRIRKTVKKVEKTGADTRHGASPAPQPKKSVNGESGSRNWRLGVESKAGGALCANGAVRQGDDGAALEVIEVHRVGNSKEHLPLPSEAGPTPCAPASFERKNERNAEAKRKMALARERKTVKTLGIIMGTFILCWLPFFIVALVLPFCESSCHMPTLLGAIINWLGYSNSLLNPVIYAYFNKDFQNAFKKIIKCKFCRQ
Sequence of Dopamine D4.2 (P21917 other isoform, or with tags, fused parts or gaps del 265-296): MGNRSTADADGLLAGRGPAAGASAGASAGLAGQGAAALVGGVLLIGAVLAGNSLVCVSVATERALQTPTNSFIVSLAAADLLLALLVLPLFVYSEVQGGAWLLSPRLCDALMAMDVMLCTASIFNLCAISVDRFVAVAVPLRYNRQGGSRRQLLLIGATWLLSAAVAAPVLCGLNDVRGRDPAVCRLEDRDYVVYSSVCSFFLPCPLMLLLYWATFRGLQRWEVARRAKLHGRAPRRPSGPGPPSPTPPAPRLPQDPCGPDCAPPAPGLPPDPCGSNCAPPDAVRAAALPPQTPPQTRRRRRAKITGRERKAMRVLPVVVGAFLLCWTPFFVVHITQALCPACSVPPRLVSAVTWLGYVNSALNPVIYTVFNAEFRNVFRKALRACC

Row | Structure (SMILES) | Inhibitory rate (%), Purinergic P2X [1] [%] | inhibition at 10 µM [2] [%] | Inhibitory rate (%), Calcium Channel L-Type, Dihydropyridine [3] [%] | inhibition at 10 µM [4] [%] | AUC(0-inf) ([5]; iv, I.V, 2 mg/kg) [ng·h/mL] | AUC(0-t) ([5]; iv, I.V, 2 mg/kg) [ng·h/mL] | clearance ([5]; iv, I.V, 2 mg/kg) [mL/min/kg] | half-life ([5]; iv, I.V, 2 mg/kg) [h] | Vd ([5]; iv, I.V, 2 mg/kg) [L/kg] | bioavailability ([5]; po) [%] | AUC(0-inf) ([5]; po, P.O, 4 mg/kg) [ng·h/mL] | AUC(0-t) ([5]; po, P.O, 4 mg/kg) [ng·h/mL] | Cmax ([5]; po, P.O, 4 mg/kg) [ng/mL] | Tmax ([5]; po, P.O, 4 mg/kg) [h] | half-life ([5]; po, P.O, 4 mg/kg) [h] | inhibition at 10 µM [6] [%] | inhibition at 10 µM [7] [%] | inhibition at 10 µM [8] [%] | inhibition at 10 µM [9] [%]
1 | Nc1ccc(-c2ccc3ncc4c(=O)[nH]c(=O)n(-c5cccc(C(F)(F)F)c5)c4c3n2)cn1 [Compound 5, 9-(6-aminopyridin-3-yl)-1-(3-(trifluoromethyl)phenyl)pyrimido[5,4-c][1,5]naphthyridine-2,4(1H,3H)-dione] | 9 | 14 | 56 | 8 | 9360 | 9130 | 3.5 | 4.72 | 1.26 | 14 | 2590 | 2550 | 205 | 6 | 5.77 | 3 | 12 | 25 | 24
2 | O=c1[nH]c(=O)n(-c2cccc(C(F)(F)F)c2)c2c1cnc1ccc(-c3cnc4[nH]ccc4c3)nc12 [Compound 30, 9-(1H-pyrrolo[2,3-b]pyridin-5-yl)-1-(3-(trifluoromethyl)phenyl)pyrimido[5,4-c][1,5]naphthyridine-2,4(1H,3H)-dione] |  |  |  |  | 3070 | 3050 | 11 | 3.89 | 1.85 | 12.8 | 785 | 654 | 54.8 | 2 | 9.42 |  |  |  | 
